# From patent publication US20060079453A1, “Hla binding peptides and their uses” (priority 2002, published 2006)
# pIC50: −log10 of the molar value. Where two headings read alike, the source gives them in different places. No end group written: not given here.
# How the values were obtained:
# HLA-A*0202 = HLA-A*0202 (Homo sapiens, UniProt P04439, D140Y/D185E/D98H/E176V/E277Q/G131W/G231S/I119L/I121R/I166T/I218V/L180W/L300P/L318F/N151K/N90K/P208A/P217A/Q67R/Q86G/Q94H/R138H/R169H/T345S); assay: biochemical; type: binding
# HLA-A*0203 = HLA-A*0203 (Homo sapiens, UniProt P04439, A173T/D140Y/D185E/D98H/E277Q/G131W/G231S/I119V/I121R/I166T/I218V/L180W/L300P/L318F/N151K/N90K/P208A/P217A/Q86G/Q94H/R138H/R169H/T345S); assay: biochemical; type: binding
# HLA-A*0206 = HLA-A*0206 (Homo sapiens, UniProt P04439, D140Y/D185E/D98H/E176V/E277Q/F33Y/G131W/G231S/I119V/I121R/I166T/I218V/L300P/L318F/N151K/N90K/P208A/P217A/Q86G/Q94H/R138H/R169H/T345S); assay: biochemical; type: binding
# HLA-A*6802 = HLA-A*6802 (Homo sapiens, UniProt P04439, A269V/D140Y/D185E/E176V/E277Q/E87N/F33Y/G231S/I121R/I166T/I218V/L180W/L300P/L318F/N151K/P208A/P217A/Q86R/R138H/R169H/S129P/T345S/V36M); assay: biochemical; type: binding
# HLA-A*2902 = HLA-A*2902 (Homo sapiens, UniProt P04439, A270S/D101N/D185E/E176V/E277Q/E87Q/F33T/G231S/H175R/I121M/I218V/I322F/K168Q/L300P/L318F/M331R/P208A/P217A/Q86L/T323A/T345S/V100A/V358M); assay: MHC molecular binding / Capture assay, IC50: A*2902
# HLA-A*3002 = HLA-A*3002 (Homo sapiens, UniProt P04439, D101N/D140H/D185E/E176R/F33S/G80R/H175R/K168Q/Q94H/R138E/R41S/V100E); assay: biochemical; type: binding
# HLA-DR DRB1*0101 (DR1) = HLA-DR DRB1*0101 (DR1) (Homo sapiens, UniProt P01903+P01911, A100R/D57E/F55L/F60I/F76Y/I96L/L162R/M171V/P40L/Q125E/R42F/V115G/Y59C); assay: biochemical; type: binding; conditions: DRB1 *0101
# HLA-DR DRB1*0301 (DR3) = HLA-DR DRB1*0301 (DR3) (Homo sapiens, UniProt P01903+P01911, A100K/A102G/A103R/A169T/F55Y/I96L/K41T/L162R/M171V/P40S/Q125H/Q178H/Q39Y/R42S/S66N/T106N/T262R/W38E/Y61H); assay: biochemical; type: binding
# HLA-DR DRB1*0401 (DR4) = HLA-DR DRB1*0401 (DR4) (Homo sapiens, UniProt P01903+P01911, A100K/A169T/F76Y/I96L/K127E/L162R/M171V/N62H/P40V/Q125Y/R42H/S133A/S149N/S66Y/V115G/V209L/W38E); assay: biochemical; type: binding; conditions: DRB1 *0401
# HLA-DR DRB1*0405 (DR4) = HLA-DR DRB1*0405 (DR4) (Homo sapiens, UniProt P01903+P01911, A100R/A169T/D86S/F76Y/I96L/K127E/L162R/M171V/N62H/P40V/Q125Y/R42H/S133A/S149N/S66Y/V115G/V209L/W38E); assay: biochemical; type: binding; conditions: DRB1 *0405
# HLA-DR DRB1*0701 (DR7) = HLA-DR DRB1*0701 (DR7) (Homo sapiens, UniProt P01903+P01911, A100R/A102G/A103Q/D57E/D86V/E43K/F76Y/K127E/L162R/M171V/P40G/Q125H/Q99D/R33Q/R42Y/R54Q/S133A/S66F/T210M/V115G/Y107V/Y59L/Y89S); assay: biochemical; type: binding; conditions: DRB1 *0701
# HLA-DR DRB1*0802 (DR8) = HLA-DR DRB1*0802 (DR8) (Homo sapiens, UniProt P01903+P01911, A100R/A103L/A169T/F76Y/H45Y/I96F/K41T/L162R/M171V/P40S/Q125H/Q178H/Q39Y/Q99D/R218S/R42G/S66Y/V115G/W38E); assay: biochemical; type: binding
# HLA-DR DRB1*0901 (DR9) = HLA-DR DRB1*0901 (DR9) (Homo sapiens, UniProt P01903+P01911, A100R/A103E/D57H/D86V/F55Y/F60I/F76Y/I96F/K127E/L162R/M171V/P40D/Q125H/Q99R/R33Q/R42F/S133A/S66N/T210M/V115G/W38K/Y107V/Y59G/Y89S); assay: biochemical; type: binding; conditions: DRB1 *0901
# HLA-DR DRB1*1101 (DR11) = HLA-DR DRB1*1101 (DR11) (Homo sapiens, UniProt P01903+P01911, A100R/A169T/A87E/I96F/K41T/L162R/M171V/P40S/Q125H/Q178H/Q39Y/Q99D/R42S/S66Y/T262R/V115G/W38E); assay: biochemical; type: binding; conditions: DRB1 *1101
# HLA-DR DRB1*1302 (DR13) = HLA-DR DRB1*1302 (DR13) (Homo sapiens, UniProt P01903+P01911, A100E/A169T/K41T/L162R/M171V/P40S/Q125H/Q178H/Q39Y/Q99D/R42S/S66N/T262R/V115G/W38E/Y61H); assay: biochemical; type: binding; conditions: DRBI *1302
# HLA-DR DRB1*1501 (DR15) = HLA-DR DRB1*1501 (DR15) (Homo sapiens, UniProt P01903+P01911); assay: biochemical; type: binding; conditions: DRBI *1501
# HLA-DR DRB3*0101 (DR52) = HLA-DR DRB3*0101 (DR52) (Homo sapiens, UniProt P01903+P79483); assay: biochemical; type: binding
# HLA-DR DRB4*0101 (DR53) = HLA-DR DRB4*0101 (DR53) (Homo sapiens, UniProt P01903+P13762, G164S); assay: biochemical; type: binding; conditions: DRB4 *0101
# HLA-DR DRB5*0101 (DR51) = HLA-DR DRB5*0101 (DR51) (Homo sapiens, UniProt P01903+Q30154); assay: biochemical; type: binding; conditions: DRB5 *0101
# [1] = A*0202 binding affinity (expressed as an IC50)
# [2] = A*0203 binding affinity (expressed as an IC50)
# [3] = A*0206 binding affinity (expressed as an IC50)
# [4] = A*6802 binding affinity (expressed as an IC50)
# [5] = Binding affinity to A*2902 (expressed as an IC50)
# [6] = Binding affinity to A*3002 (expressed as an IC50)
# Sequence of HLA-DR DRB1*0301 (DR3) (P01903 26-254 limits assumed, other chains not shown): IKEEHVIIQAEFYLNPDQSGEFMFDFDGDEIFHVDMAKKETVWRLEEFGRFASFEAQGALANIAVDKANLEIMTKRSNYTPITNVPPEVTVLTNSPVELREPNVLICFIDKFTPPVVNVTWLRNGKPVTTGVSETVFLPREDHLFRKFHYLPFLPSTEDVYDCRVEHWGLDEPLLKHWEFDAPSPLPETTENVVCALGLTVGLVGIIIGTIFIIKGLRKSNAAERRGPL
# Sequence of HLA-DR DRB1*1101 (DR11) (P01903 26-254 limits assumed, other chains not shown): as above
# Sequence of HLA-DR DRB1*1302 (DR13) (P01903 26-254 limits assumed, other chains not shown): as above
compound,measurement,setting,value
TLQGPGPGL,pIC50,HLA-A*0202; [1],7.21
same,pIC50,HLA-A*0203; [2],6.02
same,pIC50,HLA-A*0206; [3],5.04
same,pIC50,HLA-A*6802; [4],5.42
KVYGLSAFV,pIC50,HLA-A*0202; [1],8.74
same,pIC50,HLA-A*0203; [2],7.96
same,pIC50,HLA-A*0206; [3],7.16
same,pIC50,HLA-A*6802; [4],6.96
TYGWCFKL,pIC50,HLA-A*2902,4.59
same,pIC50,HLA-A*3002,< 5.09
CC(C)C[C@H](NC(=O)[C@H](CO)NC(=O)[C@@H](N)CC(C)C)C(=O)N[C@@H](CC(=O)O)C(=O)N[C@H](C(=O)N[C@@H](CO)C(=O)N[C@@H](C)C(=O)N[C@@H](C)C(=O)N[C@@H](Cc1ccccc1)C(=O)N[C@@H](Cc1ccc(O)cc1)C(=O)O)C(C)C,pIC50,HLA-A*2902; [5],7.92
QAAESNERY,pIC50,HLA-A*2902; [5],4.61
same,pIC50,HLA-A*3002; [6],5.52
KVGSLQYV,pIC50,HLA-A*0203,6.15
same,pIC50,HLA-A*0206,5.72
same,pIC50,HLA-A*6802,4.76
ITYSAHDTTV,pIC50,HLA-A*6802; [4],7.09
CC[C@H](C)[C@H](NC(=O)[C@H](CCC(=O)O)NC(=O)[C@H](CC(C)C)NC(=O)[C@H](C)NC(=O)[C@H](CO)NC(=O)[C@H](CO)NC(=O)[C@H](CC(C)C)NC(=O)[C@@H](N)CCC(=O)O)C(=O)N1CCC[C@H]1C(=O)N[C@@H](Cc1ccc(O)cc1)C(=O)O,pIC50,HLA-A*2902; [5],5.22
same,pIC50,HLA-A*3002; [6],5.35
MTHNPPIPV,pIC50,HLA-A*0203; [2],8.85
same,pIC50,HLA-A*0206; [3],6.80
same,pIC50,HLA-A*6802; [4],8.85
TLHDLCQAV,pIC50,HLA-A*0202,7.77
same,pIC50,HLA-A*0203,7.82
same,pIC50,HLA-A*0206,4.98
same,pIC50,HLA-A*6802,5.55
KMTFLCVQM,pIC50,HLA-A*0202; [1],7.66
same,pIC50,HLA-A*0203; [2],6.28
same,pIC50,HLA-A*0206; [3],7.00
same,pIC50,HLA-A*6802; [4],5.06
FLKEKGGV,pIC50,HLA-A*0202,6.19
same,pIC50,HLA-A*0206,< 4.84
same,pIC50,HLA-A*6802,< 4.71
FVSSIFISFY,pIC50,HLA-A*2902; [5],7.66
same,pIC50,HLA-A*3002; [6],7.08
YYNNFNNNY,pIC50,HLA-A*2902; [5],7.72
same,pIC50,HLA-A*3002; [6],7.47
PVDPNLEPY,pIC50,HLA-A*3002,5.15
AMAKAAAAV,pIC50,HLA-A*0203; [2],8.17
same,pIC50,HLA-A*0206; [3],5.83
same,pIC50,HLA-A*6802; [4],6.75
VCGERGFFYTPKTRR,pIC50,HLA-DR DRB1*0101 (DR1),5.02
same,pIC50,HLA-DR DRB1*0301 (DR3),5.70
same,pIC50,HLA-DR DRB1*0401 (DR4),< 4.69
same,pIC50,HLA-DR DRB1*0405 (DR4),< 4.82
same,pIC50,HLA-DR DRB1*0701 (DR7),5.26
same,pIC50,HLA-DR DRB1*0802 (DR8),6.38
same,pIC50,HLA-DR DRB1*0901 (DR9),4.84
same,pIC50,HLA-DR DRB1*1101 (DR11),5.42
same,pIC50,HLA-DR DRB1*1302 (DR13),4.46
same,pIC50,HLA-DR DRB1*1501 (DR15),< 4.59
same,pIC50,HLA-DR DRB3*0101 (DR52),4.76
same,pIC50,HLA-DR DRB4*0101 (DR53),< 4.51
same,pIC50,HLA-DR DRB5*0101 (DR51),7.04
CC(C)C[C@H](NC(=O)[C@H](C)NC(=O)[C@H](CO)NC(=O)[C@H](C)NC(=O)[C@@H](NC(=O)[C@H](CC(=O)O)NC(=O)[C@H](CC(C)C)NC(=O)[C@H](CC(C)C)NC(=O)[C@@H](N)CC(=O)O)[C@@H](C)O)C(=O)N[C@@H](Cc1ccc(O)cc1)C(=O)O,pIC50,HLA-A*2902; [5],7.13
KIFASVAIL,pIC50,HLA-A*0202; [1],7.80
same,pIC50,HLA-A*0203; [2],7.68
same,pIC50,HLA-A*6802; [4],6.44
WQNYTPGPGV,pIC50,HLA-A*0203; [2],6.64
same,pIC50,HLA-A*0206; [3],6.65
same,pIC50,HLA-A*6802; [4],4.92
LLFGWCFKLV,pIC50,HLA-A*0202,7.08
CYSLYGTTF,pIC50,HLA-A*3002,5.11
